Results taken from EP1188765B1, “Medical Use of Mechanism-oriented inhibitors of dipeptidyl peptidase I” (Probiodrug AG, priority 1998, dated 2000).
Entries after “also recorded” stand apart in the source; their conditions may differ. Values belong to the molecule of their own block, whether it stands above or below them.

Assays:
DP Ibovine = biological target: T1, DP Ibovine (Bos taurus, UniProt Q3ZCJ8); experiment: Inactivation of DP I from bovine kidney (second-order rate constants); assay type: biochemical, Rinder
T1 construct: Inaktivierung der DP I aus Rinder- bzw. humaner Niere mittels H-Gly-Phe-NHO-Bz; from tissue; host or cells: bovine kidney
T1 sequence (Q3ZCJ8 231-394 limits assumed): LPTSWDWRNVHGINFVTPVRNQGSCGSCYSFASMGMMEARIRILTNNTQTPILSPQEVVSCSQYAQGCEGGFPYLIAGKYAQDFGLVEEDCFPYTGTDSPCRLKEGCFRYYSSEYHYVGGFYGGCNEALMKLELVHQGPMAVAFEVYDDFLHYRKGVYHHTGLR
T1 sequence (Q3ZCJ8 25-143 limits assumed): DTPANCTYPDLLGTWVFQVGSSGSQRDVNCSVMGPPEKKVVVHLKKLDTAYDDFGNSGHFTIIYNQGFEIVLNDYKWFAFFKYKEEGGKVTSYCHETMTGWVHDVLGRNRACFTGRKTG
T1 sequence (Q3ZCJ8 395-463 limits assumed): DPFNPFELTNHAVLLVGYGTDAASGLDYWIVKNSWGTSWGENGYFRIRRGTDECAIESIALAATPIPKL

DP Ihum = biological target: T2, DP Ihum (Homo sapiens, UniProt P53634); experiment: Inactivation of DP I from human kidney (second-order rate constants); assay type: biochemical
T2 construct: DP I (humane Niere); from tissue; host or cells: human kidney
T2 sequence (P53634 231-394 limits assumed): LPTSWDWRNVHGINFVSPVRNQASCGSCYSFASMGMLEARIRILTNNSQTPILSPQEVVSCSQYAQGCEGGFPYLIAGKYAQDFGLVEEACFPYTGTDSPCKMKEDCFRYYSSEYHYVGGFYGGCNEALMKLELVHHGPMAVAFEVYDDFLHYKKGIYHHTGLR
T2 sequence (P53634 25-143 limits assumed): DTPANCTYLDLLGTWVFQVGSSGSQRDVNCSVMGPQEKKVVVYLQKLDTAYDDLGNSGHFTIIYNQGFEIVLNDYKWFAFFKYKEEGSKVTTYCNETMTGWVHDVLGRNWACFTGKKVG
T2 sequence (P53634 395-463 limits assumed): as the sequence (Q3ZCJ8 395-463 limits assumed) above, with A22S, L26M, S38G, L61V counted along it

DP I [1] = conditions: literature (Nikawa et al., 1992); cited from earlier work
Cathepsin B (hum. Leber) = biological target: T3, Cathepsin B (hum. Leber) (Homo sapiens, UniProt P07858); experiment: Inactivation of cathepsin B (second-order rate constants); assay type: biochemical; conditions: Table 3
T3 construct: Cathepsin B (hum. Leber); from tissue; host or cells: human liver

Cathepsin L (hum. Leber) = biological target: T4, Cathepsin L (hum. Leber) (Homo sapiens, UniProt P07711); experiment: Inactivation of cathepsin L (second-order rate constants); assay type: biochemical; conditions: Table 3
T4 construct: Cathepsin L (hum. Leber); from tissue; host or cells: human liver
T4 sequence (P07711 114-333): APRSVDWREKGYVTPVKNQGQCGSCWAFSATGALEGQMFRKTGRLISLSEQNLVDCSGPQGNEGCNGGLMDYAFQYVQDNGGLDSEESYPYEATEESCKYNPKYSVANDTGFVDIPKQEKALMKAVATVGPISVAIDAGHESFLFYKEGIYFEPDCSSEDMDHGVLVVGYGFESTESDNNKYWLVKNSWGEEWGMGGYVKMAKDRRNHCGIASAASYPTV

DP I [2] = biological target: DP I (Homo sapiens, UniProt P53634); experiment: Protection of glucagon from degradation by DP I, MALDI-TOF mass spectra; assay type: biochemical; conditions: 0.14 mM Glukagon, 40 mM TRIS/HCl pH 7,6; enzyme 15 nM; inhibitor 300 nM, 5 min preincubation with DP I
Chain of DP I (Homo sapiens, UniProt P53634) (P53634 25-463): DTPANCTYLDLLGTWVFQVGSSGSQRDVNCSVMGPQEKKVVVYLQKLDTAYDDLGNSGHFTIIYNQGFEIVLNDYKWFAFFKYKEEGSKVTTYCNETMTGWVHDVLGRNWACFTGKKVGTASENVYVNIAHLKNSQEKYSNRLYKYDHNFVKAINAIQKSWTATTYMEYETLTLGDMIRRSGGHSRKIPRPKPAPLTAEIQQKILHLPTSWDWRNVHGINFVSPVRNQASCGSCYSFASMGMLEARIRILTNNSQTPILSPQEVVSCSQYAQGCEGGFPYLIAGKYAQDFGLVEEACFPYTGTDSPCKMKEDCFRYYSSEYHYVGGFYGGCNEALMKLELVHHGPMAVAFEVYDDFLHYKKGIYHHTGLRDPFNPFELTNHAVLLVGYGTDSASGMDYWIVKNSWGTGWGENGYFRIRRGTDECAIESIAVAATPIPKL
Description: Schutz des Abbaus des Peptidhormons Glukagon durch Vorinkubation von DP I mit H-Gly-Phe-NHO-Bz
Abbildung 1: MALDI-TOF-Massenspektren von Reaktionslösungen, die Glukagon und DP I enthalten.

[3] = tested on: "DCE" (Dynorphin Converting Enzyme); conditions: Demuth et al. 1991; cited from earlier work
[4] = DP Ibovine, inhibitor concentration 1e^-4 M, Table 2
[5] = DP Ihum, inhibitor concentration 1e^-4 M, Table 2
[6] = DP Ibovine, inhibitor concentration 2e^-5 M, Table 2
[7] = DP Ihum, inhibitor concentration 2e^-5 M, Table 2

Molecule: C[C@H](NC(=O)OC(C)(C)C)C(=O)N[C@@H](C)C(=O)NOC(=O)c1ccccc1 [Boc-Ala-Ala-NHO-Bz]
kinact/Ki (DP Ibovine; [4]): keine Hemmung (1e^-4)
kinact/Ki (DP Ihum; [5]): keine Hemmung (1e^-4)

Molecule: CC(C)C[C@H](NC(=O)[C@H]1O[C@@H]1C(=O)O)C(=O)NCCCCN=C(N)N [E-64]
Inhibierung der DP I (DP I [1]): nur schwach inhibiert; also recorded: inert

Molecule: NCC(=O)N[C@@H](Cc1ccccc1)C(=O)NOC(=O)c1ccccc1 [H-Gly-Phe-NHO-Bz, N-(H-Gly-Phe-),O-Benzoyl Hydroxylamin]
kinact/KI (DP Ibovine; DP I from bovine kidney, Table 1): 36700 M⁻¹ s⁻¹
kinact/Ki (DP Ihum; DP I (humane Niere), Table 3): 34979 s^-1M^-1
kinact/KI (DP Ihum; DP I from human kidney, Table 1): 35000 M⁻¹ s⁻¹
kinact/KI (Cathepsin B (hum. Leber)): 87 M⁻¹ s⁻¹
kinact/KI (Cathepsin L (hum. Leber)): 37 M⁻¹ s⁻¹
Inhibierung des Glukagonabbaus durch DP I (DP I [2]): Inhibierung des Glukagonabbaus

Molecule: CC(=O)N[C@@H](CC(C)C)C(=O)N[C@@H](CC(C)C)C(=O)N[C@H](C=O)CCCNC(=N)N [Leupeptin]
Inhibierung der DP I (DP I [1]): nur schwach inhibiert

Molecule: Cc1ccc(C(=O)ONC(=O)[C@H](Cc2ccccc2)NC(=O)CNC(=O)OCc2ccccc2)cc1 [Z-Gly-Phe-NHO-Bz-CH3]
kinact/Ki (DP Ibovine; [6]): keine Hemmung (2e^-5)
kinact/Ki (DP Ihum; [7]): keine Hemmung (2e^-5)

Molecule: O=C(CNC(=O)OCc1ccccc1)N[C@@H](Cc1ccccc1)C(=O)NOC(=O)c1ccccc1 [Z-Gly-Phe-NHO-Bz]
kinact/Ki (DP Ihum; DP I (humane Niere), Table 3): Keine Hemmung
kinact/KI (Cathepsin B (hum. Leber)): 418 M⁻¹ s⁻¹
kinact/KI (Cathepsin L (hum. Leber)): 223 M⁻¹ s⁻¹

Molecule: H-Ile-Pro-NHO-Nb
kinact/Ki (DP Ibovine; [6]): 149 M⁻¹ s⁻¹
kinact/Ki (DP Ihum; [7]): 208 M⁻¹ s⁻¹

Further lines, with some results ahead:

kinact/Ki (DP Ibovine; [4]): keine Hemmung (1e^-4)
kinact/Ki (DP Ihum; [5]): keine Hemmung (1e^-4)
Molecule: C[C@H](NC(=O)OC(C)(C)C)C(=O)N[C@@H](C)C(=O)N[C@@H](C)C(=O)NOC(=O)c1ccccc1 [Boc-Ala-Ala-Ala-NHO-Bz]

kinact/Ki (DP Ibovine; [4]): keine Hemmung (1e^-4)
kinact/Ki (DP Ihum; [5]): keine Hemmung (1e^-4)
Molecule: C[C@H](NC(=O)OC(C)(C)C)C(=O)N1CCC[C@H]1C(=O)N[C@@H](Cc1ccccc1)C(=O)NOC(=O)c1ccccc1 [Boc-Ala-Pro-Phe-NHO-Bz]

kinact/KI (DP Ibovine; DP Ibovine, inhibitor concentration 1e^-6 M, Table 2): 3950 M⁻¹ s⁻¹
kinact/KI (DP Ihum; DP Ihum, inhibitor concentration 1e^-6 M, Table 2): 3620 M⁻¹ s⁻¹
Molecule: N[C@@H](Cc1ccc(O)cc1)C(=O)NCC(=O)NOC(=O)c1ccccc1 [H-Tyr-Gly-NHO-Bz]
Inhibierung des Enzyms DCE [3]: nur schwach und reversibel inhibiert
